Experimental data as given in patent US12503436B2, “Compounds and compositions for treating conditions associated with STING activity” (NOVARTIS PHARMA AG, priority 2021, dated 2025).
pEC50: −log10 of the molar value.

Molecular target: STING (Homo sapiens, UniProt Q86WV6, G230A/H232R/R293Q/R71H)
Assay: STING reporter assay in THP1-Dual KO-IFNAR2 cells (2′3′cGAMP stimulation, luciferase reporter)
Format: cell-based
Conditions: 15 μM 2′3′cGAMP stimulation, 24 h, read-out: Pharmaron, THP1_IFNAR2 STING 24 h Luci Normalized: GeoMean EC50
Outline: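 EC50 from secreted luciferase (QUANTI-Luc Plus luminescence of supernatant) after 24 h at 37 °C, 5% CO2. Cells: THP1-Dual KO-IFNAR2, treated with compound (0.0017-100 μM final) plus lipofected 2′3′cGAMP at 15 μM final.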

Chain of STING (Q86WV6 whole entry R71H/G230A/H232R/R293Q): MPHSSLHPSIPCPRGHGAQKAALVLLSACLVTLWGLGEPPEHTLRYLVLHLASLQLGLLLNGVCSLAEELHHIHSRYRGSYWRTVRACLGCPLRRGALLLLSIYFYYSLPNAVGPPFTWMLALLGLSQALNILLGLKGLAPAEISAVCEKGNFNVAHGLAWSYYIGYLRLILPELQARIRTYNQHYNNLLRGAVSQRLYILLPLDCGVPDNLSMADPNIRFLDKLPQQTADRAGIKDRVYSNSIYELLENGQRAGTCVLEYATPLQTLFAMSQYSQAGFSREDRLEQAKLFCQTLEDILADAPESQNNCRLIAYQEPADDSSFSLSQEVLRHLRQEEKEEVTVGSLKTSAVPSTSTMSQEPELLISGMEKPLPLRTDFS

SMILES | pEC50
CC1(C(=O)Nc2c[nH]c3ccc(OCc4ccc(C(F)(F)F)cc4)cc23)CCC1 [Compound 294, 1-methyl-N-(5-((4-(trifluoromethyl)benzyl)oxy)-1H-indol-3-yl)cyclobutane-1-carboxamide] | 6.70 to 7.40
CC(=O)Nc1c[nH]c2ccc(CCC3CCN(CC(F)(F)F)CC3)cc12 [Compound 114, N-(5-(2-(1-(2,2,2-trifluoroethyl)piperidin-4-yl)ethyl)-1H-indol-3-yl)acetamide] | 6.00 to 6.70
O=C(Nc1c[nH]c2ccc(OCC[C@@H]3C[C@@H]4CN(CC(F)(F)F)C[C@@H]4C3)cc12)C1CC1(F)Cl (stereo partly drawn) [Compound 577, 2-chloro-2-fluoro-N-(5-(2-((3aR,5r,6aS)-2-(2,2,2-trifluoroethyl)octahydrocyclopenta[c]pyrrol-5-yl)ethoxy)-1H-indol-3-yl)cyclopropane-1-carboxamide] | 6.00 to 6.70
O=C(Nc1c[nH]c2ccc(CCCc3ccc(C(F)(F)F)cc3)cc12)C1CCC1 [Compound 139, N-(5-(3-(4-(trifluoromethyl)phenyl)propyl)-1H-indol-3-yl)cyclobutanecarboxamide] | 6.70 to 7.40
C[C@@H]1OC[C@H]1C(=O)Nc1c[nH]c2ccc(O[C@H]3C[C@H](c4ccc(C(F)(F)F)cc4)C3)cc12 [Compound 423, (2S,3R)-2-methyl-N-(5-(trans-3-(4-(trifluoromethyl)phenyl)cyclobutoxy)-1H-indol-3-yl)oxetane-3-carboxamide] | 6.00 to 6.70
CC1(F)CC(C(=O)Nc2c[nH]c3ccc(OCc4ccc(C(F)(F)F)cc4)cc23)C1 (stereo not shown) [Compound 323, 3-fluoro-3-methyl-N-(5-((4-(trifluoromethyl)benzyl)oxy)-1H-indol-3-yl)cyclobutane-1-carboxamide] | 6.00 to 6.70
O=C(Nc1c[nH]c2ccc(CCc3ccc(C(F)(F)F)cc3)cc12)C1CCC1 [Compound 141, N-(5-(4-(trifluoromethyl)phenethyl)-1H-indol-3-yl)cyclobutanecarboxamide] | 5.30 to 6.00
CC1(C(=O)Nc2c[nH]c3ccc(CCOc4ccc(C(F)(F)F)cc4)cc23)CCOCC1 [Compound 594, 4-methyl-N-(5-(2-(4-(trifluoromethyl)phenoxy)ethyl)-1H-indol-3-yl)tetrahydro-2H-pyran-4-carboxamide] | 6.00 to 6.70
CO[C@H]1C[C@@H](C(=O)Nc2c[nH]c3ccc(O[C@H]4C[C@@H](c5ccc(C(F)(F)F)cc5)C4)cc23)C1 [Compound 245, cis-3-methoxy-N-(5-(cis-3-(4-(trifluoromethyl)phenyl)cyclobutoxy)-1H-indol-3-yl)cyclobutane-1-carboxamide] | 6.70 to 7.40
CC(C)(C)C(=O)Nc1c[nH]c2ccc(OCc3ccc(C(F)(F)F)cc3)cc12 [Compound 316, N-(5-((4-(trifluoromethyl)benzyl)oxy)-1H-indol-3-yl)pivalamide] | 6.00 to 6.70
COCC(=O)Nc1c[nH]c2ccc(O[C@H]3C[C@@H](c4ccc(C(F)(F)F)cc4)C3)cc12 [Compound 260, 2-methoxy-N-(5-(cis-3-(4-(trifluoromethyl)phenyl)cyclobutoxy)-1H-indol-3-yl)acetamide] | 6.00 to 6.70
CC(=O)Nc1c[nH]c2ccc(OCCc3cnc(N4CCC(F)(F)CC4)c(F)c3)cc12 [Compound 254, N-(5-(2-(6-(4,4-difluoropiperidin-1-yl)-5-fluoropyridin-3-yl)ethoxy)-1H-indol-3-yl)acetamide] | 6.70 to 7.40
CC(=O)Nc1c[nH]c2ccc(O[C@@H]3C[C@H](c4ccc(C(F)(F)F)cc4)C3(C)C)cc12 (relative stereo) [Compound 432, N-(5-(cis-2,2-dimethyl-3-(4-(trifluoromethyl)phenyl)cyclobutoxy)-1H-indol-3-yl)acetamide] | 5.30 to 6.00
O=C(Nc1c[nH]c2ccc(CCOc3ccc(C(F)(F)F)cc3)cc12)C1CCOCC1 [Compound 401, N-(5-(2-(4-(trifluoromethyl)phenoxy)ethyl)-1H-indol-3-yl)tetrahydro-2H-pyran-4-carboxamide] | 6.00 to 6.70
O=C(Nc1c[nH]c2ccc(CCOc3ccc(C(F)(F)F)cc3)cc12)C1CC(O)C1 (stereo not shown) [Compound 310, 3-hydroxy-N-(5-(2-(4-(trifluoromethyl)phenoxy)ethyl)-1H-indol-3-yl)cyclobutane-1-carboxamide] | 6.70 to 7.40
C[C@H]1C[C@@H]1C(=O)Nc1c[nH]c2ccc(CCOc3ccc(C(F)(F)F)cc3)cc12 [Compound 394, (1S,2S)-2-methyl-N-(5-(2-(4-(trifluoromethyl)phenoxy)ethyl)-1H-indol-3-yl)cyclopropane-1-carboxamide] | 6.70 to 7.40
CC(=O)N[C@H]1C[C@@](C)(C(=O)Nc2c[nH]c3ccc(O[C@H]4C[C@@H](c5ccc(C(F)(F)F)cc5)C4)cc23)C1 [Compound 412, cis-3-acetamido-1-methyl-N-(5-(cis-3-(4-(trifluoromethyl)phenyl)cyclobutoxy)-1H-indol-3-yl)cyclobutane-1-carboxamide] | 5.30 to 6.00
CCC(=O)Nc1c[nH]c2ccc(OCCc3ccc(C(F)(F)F)cc3)cc12 [Compound 146, N-(5-(4-(trifluoromethyl)phenethoxy)-1H-indol-3-yl)propionamide] | 6.70 to 7.40

Continued, values first:

pEC50 | SMILES
6.00 to 6.70 | COCCc1ccc(OCCc2ccc3[nH]cc(NC(C)=O)c3c2)cc1 [Compound 461, N-(5-{2-[4-(2-methoxyethyl)phenoxy]ethyl}-1H-indol-3-yl)acetamide]
5.30 to 6.00 | O=C(Nc1c[nH]c2ccc(OCCc3ccc(C(F)(F)F)nc3)cc12)C1COC1 [Compound 373, N-(5-(2-(6-(trifluoromethyl)pyridin-3-yl)ethoxy)-1H-indol-3-yl)oxetane-3-carboxamide]
6.00 to 6.70 | O=C(Nc1c[nH]c2ccc(CCNc3ccc(C(F)(F)F)cn3)cc12)C1CCC1 [Compound 134, N-(5-(2-((5-(trifluoromethyl)pyridin-2-yl)amino)ethyl)-1H-indol-3-yl)cyclobutanecarboxamide]
6.70 to 7.40 | O=C(Nc1c[nH]c2ccc(CCOc3ccc(C(F)(F)F)cc3)cc12)C1CN(CC(F)(F)F)C1 [Compound 219, 1-(2,2,2-trifluoroethyl)-N-(5-(2-(4-(trifluoromethyl)phenoxy)ethyl)-1H-indol-3-yl)azetidine-3-carboxamide]
4.00 to 5.30 | CC(=O)Nc1c(Br)[nH]c2ccc(OCCc3ccc(C(F)(F)F)cc3)cc12 [Compound 402, N-(2-bromo-5-(4-(trifluoromethyl)phenethoxy)-1H-indol-3-yl)acetamide]
4.00 to 5.30 | CCC(=O)Nc1c[nH]c2ccc(Cc3cc(C)ccc3O)cc12 [Compound 290, N-(5-(2-hydroxy-5-methylbenzyl)-1H-indol-3-yl)propionamide]
6.70 to 7.40 | CC1(C(=O)Nc2c[nH]c3ccc(CCOc4ccc(C(F)(F)F)cc4)cc23)COC1 [Compound 165, 3-methyl-N-(5-(2-(4-(trifluoromethyl)phenoxy)ethyl)-1H-indol-3-yl)oxetane-3-carboxamide]
6.70 to 7.40 | CO[C@H]1C[C@@H](C(=O)Nc2c[nH]c3ccc(OCCc4ccc(C(F)(F)F)cc4)cc23)C1 [Compound 222, cis-3-methoxy-N-(5-(4-(trifluoromethyl)phenethoxy)-1H-indol-3-yl)cyclobutane-1-carboxamide]
6.70 to 7.40 | CC1(F)CC(C(=O)Nc2c[nH]c3ccc(OCCc4ccc(C(F)(F)F)cc4)cc23)C1 (stereo not shown) [Compound 380, 3-fluoro-3-methyl-N-(5-(4-(trifluoromethyl)phenethoxy)-1H-indol-3-yl)cyclobutane-1-carboxamide]
6.70 to 7.40 | O=C(Nc1c[nH]c2ccc(OCCc3ccc(C(F)(F)F)cc3)cc12)C1CC1 [Compound 252, N-(5-(4-(trifluoromethyl)phenethoxy)-1H-indol-3-yl)cyclopropanecarboxamide]
6.00 to 6.70 | C=CCc1ccccc1OCCc1ccc2[nH]cc(NC(C)=O)c2c1 [Compound 548, N-(5-(2-(2-allylphenoxy)ethyl)-1H-indol-3-yl)acetamide]
4.00 to 5.30 | CC(=O)Nc1c[nH]c2ccc(OCCC3(O)CCC(F)(F)CC3)cc12 [Compound 278, N-(5-(2-(4,4-difluoro-1-hydroxycyclohexyl)ethoxy)-1H-indol-3-yl)acetamide]
6.00 to 6.70 | CC(C)(C)C(=O)Nc1c[nH]c2ccc(OCCc3ccc(C(F)(F)F)cc3)cc12 [Compound 186, N-(5-(4-(trifluoromethyl)phenethoxy)-1H-indol-3-yl)pivalamide]
6.00 to 6.70 | N#CC1CCC1C(=O)Nc1c[nH]c2ccc(OCCc3ccc(C(F)(F)F)cc3)cc12 (stereo not shown) [Compound 187, 2-cyano-N-(5-(4-(trifluoromethyl)phenethoxy)-1H-indol-3-yl)cyclobutane-1-carboxamide]
6.00 to 6.70 | CC1(C(=O)Nc2c[nH]c3ccc(OCC[C@@H]4C[C@@H]5CN(CC(F)(F)F)C[C@@H]5C4)cc23)CC1 [Compound 379, 1-methyl-N-(5-(2-((3aR,5r,6aS)-2-(2,2,2-trifluoroethyl)octahydrocyclopenta[c]pyrrol-5-yl)ethoxy)-1H-indol-3-yl)cyclopropane-1-carboxamide]
5.30 to 6.00 | O=C(Nc1c[nH]c2ccc(OCc3ccc(C(F)(F)F)cc3)cc12)C1(F)CC1 [Compound 331, 1-fluoro-N-(5-((4-(trifluoromethyl)benzyl)oxy)-1H-indol-3-yl)cyclopropane-1-carboxamide]
4.00 to 5.30 | CC(=O)Nc1c[nH]c2ccc(Oc3ccc(C(F)(F)F)nc3)cc12 [Compound 123, N-(5-((6-(trifluoromethyl)pyridin-3-yl)oxy)-1H-indol-3-yl)acetamide]
5.30 to 6.00 | CC(=O)Nc1c[nH]c2ccc(CCOc3cccc(CC#N)c3)cc12 [Compound 453, N-(5-{2-[3-(cyanomethyl)phenoxy]ethyl}-1H-indol-3-yl)acetamide]
6.00 to 6.70 | O=C(Nc1c[nH]c2ccc(OCC[C@@H]3C[C@@H]4CN(CC(F)(F)F)C[C@@H]4C3)cc12)C1COC1 [Compound 383, N-(5-(2-((3aR,5r,6aS)-2-(2,2,2-trifluoroethyl)octahydrocyclopenta[c]pyrrol-5-yl)ethoxy)-1H-indol-3-yl)oxetane-3-carboxamide]
